From patent US11339171B2, “MDM2 inhibitors” (Gan & Lee Pharmaceuticals, priority 2017, dated 2022)
“And” between values parts separate entries of the source, which are not always exact repeats. Identical values can stand only once. Like-named read-outs stand apart in the source and are kept apart here.

Experiments:
[1] = Pharmacokinetics in ICR mice after intravenous and intragastric administration; assay type: in vivo; conditions: for Vd: read-out: Vz; for MRT last: read-out: MRT(0-t); for MRT inf: read-out: MRT(0-∞)
How it was run: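 Male ICR mice aged 6-9 weeks are dosed after an overnight fast, intravenously at 2 mg/kg and orally by gavage at 5 mg/kg. Plasma drug is measured by LC-MS/MS over a 1-2000 ng/ml range.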

[2] = system: human osteosarcoma cell line SJSA-1; test: Inhibition of proliferation of human osteosarcoma cell line SJSA-1 (DAPI staining, In Cell Analyzer); conditions: Homo sapiens, SJSA-1, 72 h, read-out: IC50 (nM), inhibitory activity on proliferation of human osteosarcoma cell line SJSA-1, SJSA-1, incubated 72 h
MDM2 = biological target: T1, MDM2 (Homo sapiens, UniProt Q00987); test: Inhibition test of MDM2-P53 (GST-MDM2, Biotin-P53, Anti-GST-Tb, SA-XL665); assay type: binding
T1 construct: made in house
How it was run: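 HTRF-type assay using 4 nM GST-MDM2 (final), Biotin-P53, SA-XL665 and anti-GST-Tb in PBS with 0.1% BSA, 5 mM DTT and 1 mM AEBSF. Compounds in 5-fold serial dilutions over twelve points; incubation 90 min at 25° C with shaking before plate-reader read-out.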

[3] = ICR mice, IV 2 mg/kg, individual animal, 2 mg/kg
[4] = ICR mice, PO 5 mg/kg, individual animal, 5 mg/kg
[5] = male, ICR, mouse, plasma, iv, 2 mg/kg, ICR mice, IV 2 mg/kg, mean of 3 animals
[6] = male, ICR, mouse, plasma, po, 5 mg/kg, ICR mice, PO 5 mg/kg, individual animal
[7] = male, ICR, mouse, plasma, po, 5 mg/kg, ICR mice, PO 5 mg/kg, mean of 3 animals

T1 sequence (Q00987 whole entry): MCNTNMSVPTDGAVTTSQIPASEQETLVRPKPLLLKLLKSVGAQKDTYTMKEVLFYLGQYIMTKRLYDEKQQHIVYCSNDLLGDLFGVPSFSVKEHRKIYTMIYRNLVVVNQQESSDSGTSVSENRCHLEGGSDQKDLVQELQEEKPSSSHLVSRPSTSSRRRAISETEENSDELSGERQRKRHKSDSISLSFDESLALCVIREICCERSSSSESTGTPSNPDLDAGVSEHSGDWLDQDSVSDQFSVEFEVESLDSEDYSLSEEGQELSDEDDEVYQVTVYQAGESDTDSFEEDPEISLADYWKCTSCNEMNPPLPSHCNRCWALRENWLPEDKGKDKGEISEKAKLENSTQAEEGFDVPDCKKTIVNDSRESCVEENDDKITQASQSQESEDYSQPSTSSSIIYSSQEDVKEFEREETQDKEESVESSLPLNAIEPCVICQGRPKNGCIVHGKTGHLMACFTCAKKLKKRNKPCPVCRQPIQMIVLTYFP

## CCOc1cc(OC)c(-c2nc3c(n2C(C)C)[C@@]2(C(=O)Nc4cc(Cl)ccc42)N(c2cc(Cl)cnc2C)C3=O)cn1 [Example S-96, (S)-6-chloro-5′-(5-chloro-2-methylpyridin-3-yl)-2′-(6-ethoxy-4-methoxypyridin-3-yl)-3′-isopropyl-3′H-spiro[dihydroindole-3,4′-pyrrolo[3,4-d]imidazole]-2,6′(5′H)-dione]
[1]; [3]
  AUC(0-t): 3109.78 ng·h/mL and 3206.41 ng·h/mL and 6719.85 ng·h/mL
  AUC(0-∞): 3157.25 ng·h/mL and 3250.65 ng·h/mL and 6815.93 ng·h/mL
  CL: 10.56 mL/min/kg and 10.25 mL/min/kg and 4.89 mL/min/kg
  Cmax: 3353.43 ng/mL and 3438.41 ng/mL
  MRT(0-t): 0.90 h and 2.62 h
  MRT(0-∞): 1.00 h and 0.99 h and 2.99 h
  Vz: 0.95 L/kg and 1.42 L/kg
  t1/2: 0.93 h and 1.07 h and 3.36 h
[1]; [4]
  AUC(0-t): 6327.28 ng·h/mL and 6993.90 ng·h/mL and 13010.63 ng·h/mL
  AUC(0-∞): 6705.00 ng·h/mL and 7471.54 ng·h/mL and 15115.19 ng·h/mL
  Cmax: 3921.65 ng/mL and 2400.19 ng/mL and 5236.64 ng/mL
  MRT(0-t): 2.42 h and 2.30 h
  MRT(0-∞): 2.97 h and 3.61 h
  Tmax: 0.50 h
  t1/2: 2.06 h and 2.58 h
[1]; male, ICR, mouse, plasma, iv, 2 mg/kg, ICR mice, IV 2 mg/kg, individual animal, read-out: Cmax
  Cmax: 2980 ng/mL
[1]; male, ICR, mouse, plasma, iv, 2 mg/kg, ICR mice, IV 2 mg/kg, individual animal, read-out: Tmax
  Tmax: 0.08 h
[1]; male, ICR, mouse, plasma, iv, 2 mg/kg, ICR mice, IV 2 mg/kg, individual animal
  Vd: 0.85 L/kg
[1]; [5]
  AUC(0-inf): 4410 ng·h/mL
  clearance: 8.57 mL/min/kg
  MRT last: 1.47 h
  MRT inf: 1.66 h
  Vd: 1.07 L/kg
[1]; male, ICR, mouse, plasma, iv, 2 mg/kg, ICR mice, IV 2 mg/kg, mean of 3 animals, read-out: AUC(0-t)
  AUC(0-t): 4350 ng·h/mL
[1]; male, ICR, mouse, plasma, iv, 2 mg/kg, ICR mice, IV 2 mg/kg, mean of 3 animals, read-out: Cmax
  Cmax: 3260 ng/mL
[1]; male, ICR, mouse, plasma, iv, 2 mg/kg, ICR mice, IV 2 mg/kg, mean of 3 animals, read-out: Tmax
  Tmax: 0.083 h
[1]; male, ICR, mouse, plasma, iv, 2 mg/kg, ICR mice, IV 2 mg/kg, mean of 3 animals, read-out: t1/2 (converted)
  half-life: 1.79 h
[1]; [6]
  MRT last: 1.66 h
  MRT inf: 2.15 h
[1]; male, ICR, mouse, plasma, po, 5 mg/kg, ICR mice, PO 5 mg/kg, individual animal, read-out: Tmax
  Tmax: 0.25 h
[1]; male, ICR, mouse, plasma, po, 5 mg/kg, ICR mice, PO 5 mg/kg, individual animal, read-out: t1/2 (converted)
  half-life: 1.69 h
[1]; [7]
  AUC(0-inf): 9760 ng·h/mL
  MRT last: 2.13 h
  MRT inf: 2.91 h
[1]; male, ICR, mouse, plasma, po, 5 mg/kg, ICR mice, PO 5 mg/kg, mean of 3 animals, read-out: AUC(0-t)
  AUC(0-t): 8780 ng·h/mL
[1]; male, ICR, mouse, plasma, po, 5 mg/kg, ICR mice, PO 5 mg/kg, mean of 3 animals, read-out: Cmax
  Cmax: 3850 ng/mL
[1]; male, ICR, mouse, plasma, po, 5 mg/kg, ICR mice, PO 5 mg/kg, mean of 3 animals, read-out: Tmax
  Tmax: 0.42 h
[1]; male, ICR, mouse, plasma, po, 5 mg/kg, ICR mice, PO 5 mg/kg, mean of 3 animals, read-out: t1/2 (converted)
  half-life: 2.11 h
[1]; male, ICR, mouse, plasma, po, 5 mg/kg, oral intragastric administration 5 mg/kg, read-out: AUC0-t
  AUC(0-t): 8780 ng·h/mL
[1]; male, ICR, mouse, plasma, po, 5 mg/kg, oral intragastric administration 5 mg/kg, read-out: half-life (converted)
  half-life: 2.11 h
[1]; male, mouse, plasma, ICR mice, PO 5 mg/kg vs IV 2 mg/kg, from mean values, read-out: F* (bioavailability)
  bioavailability: 80.8%
[2]
  IC50: 25.3 nM
MDM2
  IC50: 1.04 nM
